Experimental data as given in patent US9096591B2, “Tetracyclic compounds” (Medivation Technologies, Inc., priority 2007, dated 2015).

Key:
[1] = target: T1, human recombinant histamine H1 receptor (Homo sapiens, UniProt P35367); experiment: Histamine H1 radioligand binding ([3H]Pyrilamine); settings: percent inhibition of specific binding; screened at 1 μM; read-out: Inhibition of ligand binding, Hist. H1
T1 construct: expressed in transfected cells; host or cells: CHO cells
Outline: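 CHO-expressed receptor in modified Tris-HCl buffer (50 mM, pH 7.4; 2 mM MgCl2, 100 mM NaCl, 250 mM sucrose); bound ligand measured after filtration and washing.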

[2] = target: T2, human recombinant histamine H2 receptor (Homo sapiens, UniProt P25021); experiment: Histamine H2 radioligand binding ([125I]Aminopotentidine); settings: percent inhibition of specific binding; screened at 1 μM; read-out: Inhibition of ligand binding, Hist. H2
T2 construct: expressed in transfected cells; host or cells: CHO-K1 cells
Outline: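 This radioligand binding assay measured displacement of [125I]Aminopotentidine from recombinant human histamine H2 receptors. Compounds were dissolved in 1% DMSO vehicle. Specific binding was calculated by subtracting non-specific binding, defined using 3 μM Tiotidine, and activity was reported as percentage inhibition of that specific binding.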

[3] = target: T3, human recombinant adrenergic α1D receptor (Homo sapiens, UniProt P25100); experiment: Adrenergic α1D radioligand binding ([3H]Prozosin); set-up: Inhibition of ligand binding, Adren. alpha1D: concentration or dose not given beside the values; settings: percent inhibition of specific binding
T3 construct: expressed in transfected cells; host or cells: HEK-293 cells
T3 sequence (P25100 1-572): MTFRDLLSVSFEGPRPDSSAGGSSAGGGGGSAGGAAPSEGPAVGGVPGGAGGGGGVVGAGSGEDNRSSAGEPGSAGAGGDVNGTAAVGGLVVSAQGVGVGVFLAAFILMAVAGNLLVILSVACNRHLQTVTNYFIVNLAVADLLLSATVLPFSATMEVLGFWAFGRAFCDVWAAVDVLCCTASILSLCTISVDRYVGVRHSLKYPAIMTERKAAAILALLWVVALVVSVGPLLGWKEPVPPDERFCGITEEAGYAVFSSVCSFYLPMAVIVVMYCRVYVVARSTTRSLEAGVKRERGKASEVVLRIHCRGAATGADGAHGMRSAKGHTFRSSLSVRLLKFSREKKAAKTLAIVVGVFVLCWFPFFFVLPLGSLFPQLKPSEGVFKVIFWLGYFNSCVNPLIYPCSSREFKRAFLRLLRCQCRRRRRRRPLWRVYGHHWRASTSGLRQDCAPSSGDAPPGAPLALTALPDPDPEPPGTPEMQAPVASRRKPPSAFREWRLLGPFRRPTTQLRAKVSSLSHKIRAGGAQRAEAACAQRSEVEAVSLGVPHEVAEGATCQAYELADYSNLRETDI
Protocol: Compounds of invention were incubated with 0.6 nM [^3H]Prozosin for 60 minutes at 25° C. Non-specific binding was estimated in the presence of 10 μM phentolamine. Receptor proteins were filtered and washed, the filters were then counted to determine [^3H]Prozosin specifically bound. […] Biochemical assay results are presented as the percent inhibition of specific binding in Table 6.

[4] = target: T4, human recombinant adrenergic α2B receptor (Homo sapiens, UniProt P18089); experiment: Adrenergic α2B radioligand binding ([3H]Rauwolscine); set-up: Inhibition of ligand binding, Adren. alpha2B: concentration or dose not given beside the values; settings: percent inhibition of specific binding
T4 construct: expressed in transfected cells; host or cells: CHO-K1 cells
T4 sequence (P18089 1-450): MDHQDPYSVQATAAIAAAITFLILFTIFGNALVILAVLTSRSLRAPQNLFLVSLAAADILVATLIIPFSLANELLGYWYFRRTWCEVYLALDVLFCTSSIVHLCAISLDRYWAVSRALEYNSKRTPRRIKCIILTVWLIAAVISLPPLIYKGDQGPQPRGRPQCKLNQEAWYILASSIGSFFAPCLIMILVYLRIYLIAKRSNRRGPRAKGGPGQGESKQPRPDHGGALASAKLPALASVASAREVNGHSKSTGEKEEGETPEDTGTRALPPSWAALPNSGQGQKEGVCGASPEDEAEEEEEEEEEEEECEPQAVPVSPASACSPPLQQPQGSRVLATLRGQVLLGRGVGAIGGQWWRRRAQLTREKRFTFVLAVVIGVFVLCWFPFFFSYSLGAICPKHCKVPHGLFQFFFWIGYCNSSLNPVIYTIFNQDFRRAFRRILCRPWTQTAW
Outline: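 Incubation ran 60 minutes at 25 °C in modified Tris-HCl buffer (50 mM, pH 7.4, 12.5 mM MgCl2, 1 mM EDTA, 0.2% BSA) using CHO-K1-expressed human receptor.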

[5] = target: T5, human recombinant dopamine D2L receptor (Homo sapiens, UniProt P14416); experiment: Dopamine D2L radioligand binding ([3H]Spiperone); settings: percent inhibition of specific binding
T5 construct: expressed in transfected cells; host or cells: CHO cells
Protocol: Non-specific binding was estimated in the presence of 10 μM Haloperidol. Receptor proteins were filtered and washed, the filters were then counted to determine [^3H]Spiperone specifically bound. […] Biochemical assay results are presented as the percent inhibition of specific binding in Table 6.

[6] = target: T6, human recombinant serotonin (5-Hydroxytryptamine) 5-HT2A receptor (Homo sapiens, UniProt P28223); experiment: Serotonin 5-HT2A radioligand binding ([3H]Ketanserin); settings: percent inhibition of specific binding
T6 construct: expressed in transfected cells; host or cells: CHO-K1 cells
Protocol: Compounds of the invention were incubated with 0.5 nM [^3H]Ketanserin for 60 minutes at 25° C. Non-specific binding was estimated in the presence of 1 μM Mianserin. Receptor proteins were filtered and washed, the filters were then counted to determine [^3H]Ketanserin specifically bound. […] Biochemical assay results are presented as the percent inhibition of specific binding in Table 6.

T1 sequence (P35367 whole entry): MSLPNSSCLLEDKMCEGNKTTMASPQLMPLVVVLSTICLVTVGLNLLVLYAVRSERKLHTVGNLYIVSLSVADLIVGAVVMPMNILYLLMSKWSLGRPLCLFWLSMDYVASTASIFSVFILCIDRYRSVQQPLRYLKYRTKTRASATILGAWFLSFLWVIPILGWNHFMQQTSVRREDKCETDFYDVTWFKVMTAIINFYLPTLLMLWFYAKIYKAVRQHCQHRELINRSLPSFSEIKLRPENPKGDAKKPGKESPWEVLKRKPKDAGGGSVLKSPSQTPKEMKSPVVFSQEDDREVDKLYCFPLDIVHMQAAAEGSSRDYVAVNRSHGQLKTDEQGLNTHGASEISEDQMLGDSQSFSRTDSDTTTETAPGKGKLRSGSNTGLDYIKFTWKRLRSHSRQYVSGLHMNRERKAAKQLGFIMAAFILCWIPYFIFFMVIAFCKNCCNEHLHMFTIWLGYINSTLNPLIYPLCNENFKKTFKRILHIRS
T5 sequence (P14416 whole entry): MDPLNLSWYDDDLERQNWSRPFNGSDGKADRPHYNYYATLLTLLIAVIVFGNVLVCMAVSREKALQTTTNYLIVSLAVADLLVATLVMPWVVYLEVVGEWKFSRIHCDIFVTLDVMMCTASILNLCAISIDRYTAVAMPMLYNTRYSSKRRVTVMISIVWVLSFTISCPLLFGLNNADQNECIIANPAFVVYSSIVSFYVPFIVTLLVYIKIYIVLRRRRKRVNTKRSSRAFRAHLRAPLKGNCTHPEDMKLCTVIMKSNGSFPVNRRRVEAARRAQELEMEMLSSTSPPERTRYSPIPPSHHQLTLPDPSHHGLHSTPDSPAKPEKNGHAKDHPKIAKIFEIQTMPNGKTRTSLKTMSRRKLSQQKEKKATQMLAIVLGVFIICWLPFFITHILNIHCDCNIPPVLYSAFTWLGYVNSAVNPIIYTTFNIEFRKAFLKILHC
T6 sequence (P28223 whole entry): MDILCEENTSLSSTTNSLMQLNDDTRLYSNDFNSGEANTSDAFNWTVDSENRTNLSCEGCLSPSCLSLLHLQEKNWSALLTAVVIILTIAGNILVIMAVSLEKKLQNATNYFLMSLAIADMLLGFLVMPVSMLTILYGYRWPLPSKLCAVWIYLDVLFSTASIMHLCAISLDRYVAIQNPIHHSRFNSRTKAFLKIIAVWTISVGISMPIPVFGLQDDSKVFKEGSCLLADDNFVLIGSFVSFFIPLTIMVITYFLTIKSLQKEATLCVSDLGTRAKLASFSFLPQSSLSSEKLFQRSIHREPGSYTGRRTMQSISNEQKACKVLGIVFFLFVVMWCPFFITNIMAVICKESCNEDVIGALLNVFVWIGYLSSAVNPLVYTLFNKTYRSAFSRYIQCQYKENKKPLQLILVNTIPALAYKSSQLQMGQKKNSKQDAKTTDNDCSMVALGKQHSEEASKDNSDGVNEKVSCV
T2 sequence (P25021 whole entry): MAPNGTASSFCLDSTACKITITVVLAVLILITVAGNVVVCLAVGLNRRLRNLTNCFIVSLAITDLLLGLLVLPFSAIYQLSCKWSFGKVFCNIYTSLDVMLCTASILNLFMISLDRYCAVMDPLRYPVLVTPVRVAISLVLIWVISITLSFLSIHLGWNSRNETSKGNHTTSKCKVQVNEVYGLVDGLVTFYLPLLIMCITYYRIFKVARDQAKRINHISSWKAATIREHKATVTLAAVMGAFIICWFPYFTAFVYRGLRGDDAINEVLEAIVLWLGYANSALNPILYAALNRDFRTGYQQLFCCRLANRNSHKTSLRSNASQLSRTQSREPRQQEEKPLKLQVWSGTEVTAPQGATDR

SMILES | inhibition at 1 µM [1] [%] | inhibition at 1 µM [2] [%] | Inhibition of ligand binding, Adren. alpha1D [3] [%] | Inhibition of ligand binding, Adren. alpha2B [4] [%] | Inhibition of ligand binding, Dop. D2L [5] [%] | Inhibition of ligand binding, Ser. 5-HT2A [6] [%]
Cc1ccc2c(c1)c1c(n2CC(=O)N2CCSCC2)CCN(C)C1 [Compound 399, 2-(1,2,3,4-tetrahydro-2,8-dimethylpyrido[4,3-b]indol-5-yl)-1-thiomorpholinoethanone] | 42 | 10 | 6 | 11 | 0 | 8
Cc1ccc2c(c1)c1c(n2CC(=O)N2CCCC(C)C2)CCN(C)C1 (stereo not drawn) [Compound 401, 2-(1,2,3,4-tetrahydro-2,8-dimethylpyrido[4,3-b]indol-5-yl)-1-(3-methylpiperidin-1-yl)ethanone] | 36 | 14 | 1 | 3 | −12 | 17
Cc1ccc(CCn2c3c(c4cc(Cl)ccc42)CN(c2cccc(C(F)(F)F)c2)CC3)cn1 [Compound 403, 8-Chloro-5-[2-(6-methyl-pyridin-3-yl)-ethyl]-2-(3-trifluoromethyl-phenyl)-2,3,4,5-tetrahydro-1H-pyrido[4,3-b]indole] | 54 | 10 | 19 | 46 | 2 | 32
Cc1ccc(CCn2c3c(c4cc(Cl)c(F)cc42)CN(C)CC3)cn1 [Compound 404, 8-Chloro-7-fluoro-2-methyl-5-[2-(6-methyl-pyridin-3-yl)-ethyl]-2,3,4,5-tetrahydro-1H-pyrido[4,3-b]indole] | 102 | 88 | 81 | 95 | 35 | 88
CN1CCN(CCn2c3c(c4cc(Cl)ccc42)CN(C)CC3)CC1 [Compound 417, 8-chloro-2,3,4,5-tetrahydro-2-methyl-5-(2-(4-methylpiperazin-1-yl)ethyl)-1H-pyrido[4,3-b]indole] | 10 | 19 | 1 | −1 | −12 | 23
CN1CCc2c(c3cc(Cl)ccc3n2CCc2cncnc2)C1 [Compound 424, 8-Chloro-2-methyl-5-(2-pyrimidin-5-yl-ethyl)-2,3,4,5-tetrahydro-1H-pyrido[4,3-b]indole] | 104 | 19 | 57 | 94 | 17 | 52
Cc1ccc2c(c1)c1c(n2CCc2cncc(C(F)(F)F)c2)CCN(C)C1 [Compound 425, 5-(2-(5-(trifluoromethyl)pyridin-3-yl)ethyl)-2,3,4,5-tetrahydro-2,8-dimethyl-1H-pyrido[4,3-b]indole] | 100 | 85 | 65 | 99 | −1 | 84
CN1CCc2c(c3cc(Cl)ccc3n2CCc2cncc(C(F)(F)F)c2)C1 [Compound 426, 8-chloro-5-(2-(5-(trifluoromethyl)pyridin-3-yl)ethyl)-2,3,4,5-tetrahydro-2-methyl-1H-pyrido[4,3-b]indole] | 99 | 66 | 69 | 98 | −7 | 85
Cc1cncc(CCn2c3c(c4cc(C)ccc42)CN(C)CC3)c1 [Compound 429, 2,3,4,5-tetrahydro-2,8-dimethyl-5-(2-(5-methylpyridin-3-yl)ethyl)-1H-pyrido[4,3-b]indole] | 100 | 68 | 69 | 115 | 23 | 76
Cc1ccc2c(c1)c1c(n2CCc2cncc(Cl)c2)CCN(C)C1 [Compound 443, 5-(2-(5-chloropyridin-3-yl)ethyl)-2,3,4,5-tetrahydro-2,8-dimethyl-1H-pyrido[4,3-b]indole] | 102 | 94 | 91 | 117 | 29 | 94
CN1CCc2c(c3cc(Cl)ccc3n2CCc2cncc(Cl)c2)C1 [Compound 444, 8-chloro-5-(2-(5-chloropyridin-3-yl)ethyl)-2,3,4,5-tetrahydro-2-methyl-1H-pyrido[4,3-b]indole] | 101 | 80 | 91 | 113 | 32 | 95
CCCc1ccc(CCn2c3c(c4cc(C)ccc42)CN(C)CC3)cn1 [Compound 452, 2,8-Dimethyl-5-[2-(6-propyl-pyridin-3-yl)-ethyl]-2,3,4,5-tetrahydro-1H-pyrido[4,3-b]indole] | 109 | 92 | 82 | 104 | 52 | 97
CC(Cn1c2c(c3ccccc31)CN(C)CC2)c1ccc(F)cc1 (stereo not drawn) [Compound 455] | 80 | 91 | 81 | 120 | 88 | 99
Cc1ccc2c(c1)c1c(n2CC(C)c2ccc(F)cc2)CCN(C)C1 (stereo not drawn) [Compound 456, 5-(2-(4-fluorophenyl)propyl)-2,3,4,5-tetrahydro-2,8-dimethyl-1H-pyrido[4,3-b]indole] | 99 | 98 | 96 | 110 | 76 | 104
